Laboratory results from paper PMC9692552, “Activity and Synergy of Cu-ATCUN Antimicrobial Peptides” (International Journal of Molecular Sciences, 2022).
Read-outs that look alike come from different tables or passages of the source. Ends that are not written are not given here.

Assays:
P. aeruginosa 27583 = details: cited from earlier work
Text: (§1) Table 2 MIC Values (µM) for SMAP-29 Derivatives. * Previously reported data from reference r comparison. | column: OV3 *; Cu-1 *; Cu-2 *; Cu-3 *; Cu-4 * || Table 4 MIC values for antimicrobial peptides utilized in this study. MIC values for a variety of the presented peptides have been previously determined in alternative conditions; values here are the result of experimental efforts to determine MICs under the conditions utilized for further study of FIC potential, with the exception of Sub5 and Sub5-01, previously characterized in our laboratory, w | column: Sub5; Sub5-01

A. baumannii BAA747 [1] = details: cited from earlier work
Text: as §1

K. pneumoniae 700603 = details: cited from earlier work
Text: as §1

E. faecium 700221 (VRE) = details: cited from earlier work
Text: as §1

E. coli 25922 [2] = details: cited from earlier work
Text: as §1

S. aureus 43300 (MRSA) = details: cited from earlier work
Text: as §1

[3] = in SDS, as previously reported, cited from earlier work
Text: Table 1 SMAP-29 derivatives used in this study and others with sequences and defining characteristics. ^a Estimated charge calculated from Innovagen’s peptide property calculator. ^b The helical activity of peptides as previously reported in the referenced manuscripts. ND: not determined. | column: % Helical (SDS) ^b

MRSA 43300 [4] = test: FIC of peptide pairs (two-way dilution, 96-well plate); type: cell-based, S. aureus; details: single peptide on the FIC plate
Protocol: (§2) Determining MIC values informed decisions on testing peptides in combination. Fractional inhibitory concentrations determine the ability of test articles to act in concert against a pathogen. FIC determination is experimentally similar to MIC determination, except one test article is diluted down the wells and another is diluted across the wells of the 96-well plate in order to test the synergism of two peptides. […] Synergy is defined as an FIC of less than or equal to 0.5, meaning there is a four-fold reduction in the concentration of each peptide required for inhibition. Any number above 4 indicates a deleterious interaction that reduces the effectiveness of each peptide, and a value between 0.5 and 1 can be considered additive (Equation (2)).
(§3) Fractional inhibitory concentrations (FICs) were determined in a manner similar to MIC determinations but with serial dilutions of two peptides running both horizontally and vertically across the 96-well plate. Determination of the FIC can be seen in Equation (2), where FIC is the fractional inhibitory concentration, [A] is the concentration of substrate A at MIC in combination, [B] is the concentration of substrate B at MIC in combination, and MICA and MICB are the MIC of substrate A and substrate B, respectively. FIC = fractional inhibitory concentration, [A] = concentration of A at MIC in combination, [B] = concentration of B at MIC in combination, MICA = minimum inhibitory concentration of A, and MICB = minimum inhibitory concentration of B. When FIC ≤ 0.5 the results are synergistic. If FIC > 4, the results are antagonistic, and when FIC > 0.5, the results are indifferent or additive. (2) FIC=[A]/MICA+ [B]/MICB

A. baumannii BAA747 [5] = tested on: A. baumannii BAA747; set-up: method as in ref 13 of the supplement ([11] in main text); details: Acinetobacter baumannii, single peptide on the FIC plate, ref 13 of the supplement ([11] in main text), cited from earlier work
MRSA 43300 [6] = tested on: MRSA 43300; set-up: method as in ref [13] of the supplement ([11] in main text); details: single peptide on the FIC plate, cited from earlier work
E. coli 25922 [7] = test: FIC of peptide pairs (two-way dilution, 96-well plate); type: cell-based, Escherichia coli; details: single peptide on the FIC plate
Protocol: as §2, §3

E. coli 25922 [8] = details: single peptide on the FIC plate, cited from earlier work
Text: Figure 6 Summary of peptide interactions in E. coli 25922 from data presented in Results and Supplemental Material. Synergistic (or non-synergistic) interactions for CP10A, TempL, OV3-00 and OV3-01 with other peptides are grouped as shown. Parental and ATCUN derivatives are outlined in the same shape with the average FIC value shown in parentheses. TEXT PRINTED IN THE PICTURE: Sub5: E. coli 25922, CP10A, Synergistic: (0.4); E. coli 25922, TempL, Additive/Indifferent: (1) | Sub5-01: E. coli 25922, CP10A, Synergistic: (0.42); E. coli 25922, TempL, Additive/Indifferent: (0.78) | Mag2-01: E. coli ... || page 3: For Tables S3-S10: FIC Index = [A]/[MICA] + [B]/[MICB], where [A] and [B] are the concentrations of respective peptides at which no growth was observed when dosed in combination, and [MICA] and [MICB] are the concentrations where no growth was observed when dosed separately. The data from each experiment repeated in duplicate or triplicate is shown and bolded data in the final row is the average FIC value. Error is reported as the standard deviation of the mean. Table S3. FIC values for Interactions of CP10A and TempL in E. coli 25922. * Previously reported data from reference for ... || page 4: Table S4. FIC values for the non-ATCUN containing parental peptides in E. coli 25922. A CP10A CP10A CP10A TempL TempL TempL TempL B Sub5 13 Mag2 OV3-00 Sub5 TRP Mag2 OV3-00 [A] 2/4/4 2/2/1 2/2/0.5 2/2/2 1/1/1 0.25/1/2 2/2/2 MICA 16/16/16 4/4/2 4/4/4 4/4/4 2/4/2 4/4/4 16/16/16 [B] 1/0.5/0.25 2/2/2 0.5/1/1 4/4/4 4/4/4 4/2/0.125 4/1/1 MICB 4/2/4 4/4/4 2/2/2 8/8/8 8/8/8 8/8/8 8/2/2 FIC 0.375/0.328/0.5 1/1/1 0.75/1/0.625 1/1/1 1/0.75/1 0.56/0.5/0.52 0.625/0.625/0.625 FICAvg 0.40 ± 0.04 1 0.78 ± 0.2 1 0.9 ± 0.14 0.53 ± 0.03 0.625 Table S5. FIC Values for ATCUN peptide derivatives in MRSA 433 ...

[9] = P. aeruginosa (27583), previously reported data, ref [8]
[10] = previously reported data, ref [8]
[11] = P. aeruginosa 27583, taken from earlier work, ref [7]
[12] = taken from earlier work, ref [7]
[13] = replicate 1, ref [13] of the supplement ([11] in main text)
[14] = replicate 2, ref [13] of the supplement ([11] in main text)
[15] = replicate 3, ref [13] of the supplement ([11] in main text)

GGHIRRIIRKIIHIIKKGGC-NH2 [Cu-4, ATCUN-OV3 derivative from the authors' earlier work]
MIC (P. aeruginosa 27583; [9]): 4 µM
MIC (A. baumannii BAA747 [1]; [10]): 10.7 µM
MIC (K. pneumoniae 700603; [10]): 8 µM
MIC (E. faecium 700221 (VRE); [10]): 3.3 µM
MIC (E. coli 25922 [2]; [10]): 1.3 µM
MIC (S. aureus 43300 (MRSA); [10]): 1.5 µM
% Helical (SDS) ([3]; ref [8]): 64% [8]

GGHRRWKIVVIRWRR-NH2 [Sub5-01, ATCUN derivative of Sub5, previously characterized by the authors]
MIC (P. aeruginosa 27583; [11]): 2 µM
MIC (A. baumannii BAA747 [1]; [12]): 1 µM
MIC (K. pneumoniae 700603; [12]): 2 µM
MIC (E. faecium 700221 (VRE); [12]): 0.4 µM
MIC (E. coli 25922 [2]; [12]): 2.7 µM
MIC (S. aureus 43300 (MRSA); [12]): 1 µM
MICA/MICB, concentration with no growth when dosed separately (MRSA 43300 [4]; replicate 1): 4 µM
MICA/MICB, concentration with no growth when dosed separately (MRSA 43300 [4]; replicate 2): 4 µM
MICA/MICB, concentration with no growth when dosed separately (MRSA 43300 [4]; replicate 3): 4 µM
MICA/MICB, concentration with no growth when dosed separately (A. baumannii BAA747 [5]; replicate 1): 1 µM
MICA/MICB, concentration with no growth when dosed separately (A. baumannii BAA747 [5]; replicate 2): 2 µM
MICA/MICB, concentration with no growth when dosed separately (A. baumannii BAA747 [5]; replicate 3): 1 µM
MICA/MICB, concentration with no growth when dosed separately (MRSA 43300 [6]; [13]): 16 µM
MICA/MICB, concentration with no growth when dosed separately (MRSA 43300 [6]; [14]): 16 µM
MICA/MICB, concentration with no growth when dosed separately (MRSA 43300 [6]; [15]): 16 µM
MICA/MICB, concentration with no growth when dosed separately (E. coli 25922 [7]; replicate 1): 8 µM
MICA/MICB, concentration with no growth when dosed separately (E. coli 25922 [7]; replicate 2): 8 µM
MICA/MICB, concentration with no growth when dosed separately (E. coli 25922 [7]; replicate 3): 8 µM
MICA/MICB, concentration with no growth when dosed separately (E. coli 25922 [8]; [13]): 4 µM
MICA/MICB, concentration with no growth when dosed separately (E. coli 25922 [8]; [14]): 4 µM
MICA/MICB, concentration with no growth when dosed separately (E. coli 25922 [8]; [15]): 4 µM

GGHIRRIIRKIIHIIKK-NH2 [Cu-3, ATCUN-OV3 derivative from the authors' earlier work]
MIC (P. aeruginosa 27583; [9]): >16 µM
MIC (A. baumannii BAA747 [1]; [10]): 5.3 µM
MIC (K. pneumoniae 700603; [10]): 16 µM
MIC (E. faecium 700221 (VRE); [10]): 8 µM
MIC (E. coli 25922 [2]; [10]): >16 µM
MIC (S. aureus 43300 (MRSA); [10]): 16 µM
% Helical (SDS) ([3]; ref [8]): 35% [8]

IRRIIRKIIHIIKK-NH2 [OV3, SMAP-29 derivative, parental peptide of Cu-1 to Cu-4]
MIC (P. aeruginosa 27583; [9]): 16 µM
MIC (A. baumannii BAA747 [1]; [10]): 1 µM
MIC (K. pneumoniae 700603; [10]): >16 µM
MIC (E. faecium 700221 (VRE); [10]): 16 µM
MIC (E. coli 25922 [2]; [10]): >16 µM
MIC (S. aureus 43300 (MRSA); [10]): >16 µM
% Helical (SDS) ([3]; ref [8]): 38% [8]

GGHGIRRIIRKIIHIIKKGGC-NH2 [Cu-2, ATCUN-OV3 derivative from the authors' earlier work]
MIC (P. aeruginosa 27583; [9]): 12 µM
MIC (A. baumannii BAA747 [1]; [10]): 9.3 µM
MIC (K. pneumoniae 700603; [10]): >16 µM
MIC (E. faecium 700221 (VRE); [10]): 8 µM
MIC (E. coli 25922 [2]; [10]): 3 µM
MIC (S. aureus 43300 (MRSA); [10]): 4 µM
% Helical (SDS) ([3]; ref [8]): 56% [8]

KNLRRIIRKIIHIIKKYGPTILRIIRIIG [OV, SMAP-29 derivative]
% Helical (SDS) ([3]; ref [17]): 86% [17]

GGHGIRRIIRKIIHIKK-NH2 [Cu-1, ATCUN-OV3 derivative from the authors' earlier work]
MIC (P. aeruginosa 27583; [9]): >16 µM
MIC (A. baumannii BAA747 [1]; [10]): 2.7 µM
MIC (K. pneumoniae 700603; [10]): 16 µM
MIC (E. faecium 700221 (VRE); [10]): 16 µM
MIC (E. coli 25922 [2]; [10]): >16 µM
MIC (S. aureus 43300 (MRSA); [10]): 16 µM
% Helical (SDS) ([3]; ref [8]): 14% [8]

RRWKIVVIRWRR-NH2 [Sub5, bactenecin derivative]
MIC (P. aeruginosa 27583; [11]): 4 µM
MIC (A. baumannii BAA747 [1]; [12]): 0.8 µM
MIC (K. pneumoniae 700603; [12]): 1.7 µM
MIC (E. faecium 700221 (VRE); [12]): 0.5 µM
MIC (E. coli 25922 [2]; [12]): 3.3 µM
MIC (S. aureus 43300 (MRSA); [12]): 2 µM
MICA/MICB, concentration with no growth when dosed separately (MRSA 43300 [4]; replicate 1): 4 µM
MICA/MICB, concentration with no growth when dosed separately (MRSA 43300 [4]; replicate 2): 4 µM
MICA/MICB, concentration with no growth when dosed separately (MRSA 43300 [4]; replicate 3): 4 µM
MICA/MICB, concentration with no growth when dosed separately (A. baumannii BAA747 [5]; replicate 1): 2 µM
MICA/MICB, concentration with no growth when dosed separately (A. baumannii BAA747 [5]; replicate 2): 2 µM
MICA/MICB, concentration with no growth when dosed separately (A. baumannii BAA747 [5]; replicate 3): 2 µM
MICA/MICB, concentration with no growth when dosed separately (MRSA 43300 [6]; [13]): 1 µM
MICA/MICB, concentration with no growth when dosed separately (MRSA 43300 [6]; [14]): 2 µM
MICA/MICB, concentration with no growth when dosed separately (MRSA 43300 [6]; [15]): 2 µM
MICA/MICB, concentration with no growth when dosed separately (E. coli 25922 [7]; replicate 1): 8 µM
MICA/MICB, concentration with no growth when dosed separately (E. coli 25922 [7]; replicate 2): 8 µM
MICA/MICB, concentration with no growth when dosed separately (E. coli 25922 [7]; replicate 3): 8 µM
MICA/MICB, concentration with no growth when dosed separately (E. coli 25922 [8]; [13]): 4 µM
MICA/MICB, concentration with no growth when dosed separately (E. coli 25922 [8]; [14]): 2 µM
MICA/MICB, concentration with no growth when dosed separately (E. coli 25922 [8]; [15]): 4 µM
